Laboratory results from patent US20090076168A1, “AMINE-BASED AND IMINE-BASED POLYMERS, USES AND PREPARATION THEREOF” (priority 2005, published 2009).

System: skin
Conditions: guaranine 50 mg/mL, 1-2 mL solution or gel/100 cm^2 of skin, young subjects, compared to untreated subjects
Experimental: Bioactive molecules can be added and the mixture stirred for 30 minutes to 2 hours according to their liposoluble or water-soluble nature. The addition of collagen or gelatin (1-10%), Polawax™ (1-10%), cetyl alcohol (1-10%), fatty acids (stearic or palmitique, 1-10%), Tween™ 20% and terpenoid (i.e. limonene) is optional.

Structure (SMILES): Cn1c(=O)c2c(ncn2C)n(C)c1=O [guaranine]
- blood pressure: considerable increase
- pulsations: considerable increase
